Assay [1] concerns C. acnes ATCC 6919. In words: Minimum inhibitory concentration (MIC) of 4-hexyl resorcinol against C. acnes growth, serial dilution in 96-well plate, visible turbidity. The format is cell-based, Cutibacterium acnes. The arrangement: key: A “+” indicates growth; a “−” indicates no growth. The conditions noted are these: anaerobic, 3 days, 35° C. The protocol: (§1) A standard C. acnes ATCC 6919 culture is grown in Reinforced Clostridial Media (RCM) (Remel, Lenexa, Kans.). A suspension of C. acnes is adjusted to OD600=1.0 using a Spectromax M5 spectrophotometer (Molecular Devices, San Jose, Calif.) to yield a concentration of 10^8 cfu/ml. A 1:100 dilution of the standardized suspension is created to yield an inoculum concentration of 10^6 cfu/ml. Therefore, 100μl of inoculum into 100 μl of test sample yields 5×10^5 cfu/ml C. acnes within a 96-well experiment plate.
The minimum inhibitory concentration (MIC) of 4-hexyl resorcinol was determined to investigate its ability to inhibit the growth of C. acnes. All media and diluents were sterile. Aseptic techniques were used during study execution.
A C. acnes inoculum was prepared as set forth above.
A 0.1% (w/w) stock of 4-hexylresorcinol (Alfa Aesar, Tewksbury, Mass.) was made in RCM. Serial 1:2 dilutions were made in RCM across successive wells of a 96-well plate (sterile, u-bottom, untreated culture plate from Greiner Bio-one, Monroe, N.C.) to yield 10 test concentrations. After inoculation with equal volumes of C. acnes suspension, the test concentrations ranged from 0.05% through […] (v/v). Sterile RCM and 5×10^5 cfu/ml C. acnes in RCM were set up as a negative growth control and a positive growth control, respectively. Sterile 0.1% (w/w) 4-hexylresorcinol in RCM was set up as a turbidity control.
The 96-well plate was incubated anaerobically for 3 days at 35° C. The presence of visible turbidity within a challenged well was indicative of growth, while a clear well indicated no growth. The lowest concentration that inhibited C. acnes growth was determined to be the MIC. Negative growth control (not turbid) and positive growth control (turbid) results were as expected.

For assay [2], the system named is C. acnes ATCC 6919. In words: In vitro reduction of C. acnes by 4-hexylresorcinol with or without 440 nm blue light, colony count. The following applies: for Ave. Log Reduction ± S.D., arithmetic sum (expected additive): sum of light only and 0.002% 4-hexylresorcinol only. The class given is cell-based, Cutibacterium acnes. The protocol: as §1
The culture is incubated in anaerobic chamber (<10 ppm O^2, 2.5-5% H^2, balance N^2 at 35±2° C.), in the dark, on an orbital shaker at 80 RPM. For test treatments including light, the prepared C. acnes culture is exposed for two, 60-minute light cycles with a 60-minute hold time between. Each light cycle is with blue light at wavelength 440 nm and 22±2 mW/cm^2 intensity. After treatments, the sample is incubated overnight (16±2 hours) in an anaerobic chamber. The sample is then recovered onto agar and incubated 5-7 days until clear colonies are visible. After growth, the remaining viable C. acnes colonies are counted; converted to cfu/ml and the log 10 reduction in number of cells is calculated (log 10 reduction=no light control sample−test sample).
A C. acnes inoculum was prepared as set forth above and in the same manner as Example 1. The solution was stored at 4° C. until time of use. The stock solution was added to RCM to produce a final concentration of 0.01% (v/v) and inoculated with 0.1 mL of the C. acnes suspension to yield 10^6 cfu/ml. The prepared culture in RCM+ALA was incubated by shaking at 80 rpm, in the dark (foil covered), and in an anaerobic chamber at 35±2° C. for 24 hours.
A 0.02% (w/v) of n-4-hexylresorcinol (Alfa Aesar, Tewksbury, Mass.) was prepared in RCM. The sample stock solution was mixed as 1:10 (v/v) with 24-hour C. acnes culture in RCM+ALA. Organism control culture was diluted 1:10 (v/v) with RCM for equivalent organism concentration.
The in vitro evaluation was conducted as follows. The prepared C. acnes culture (grown with ALA) was mixed with the test sample as described above, added to 6-well plates and then exposed to two 60-minute, 440 nm blue light (22 mW) exposures, separated by one 60-minute rest period in the dark. Two samples were tested: 4-hexylresorcinol at 0.002% (v/v) and 24-hour C. acnes culture in RCM+ALA alone. A duplicate, 6-well plate was kept un-exposed to light as a control. All plates were incubated anaerobically, overnight, in the dark (foil covered), and in an anaerobic chamber at 35±2° C.
After 24-hour incubation, samples were serial diluted and plated onto Reinforced Clostridial Agar (Remel, Lenexa, Kans.). Agar plates were incubated anaerobically at 35±2° C. for 5-7 days until bacterial colonies were well-established. Then, colonies were counted and colony forming units (CFU) per ml were calculated. Statistically significant differences are defined by unshared letter groupings.

Take `CCCCCCc1ccc(O)cc1O` [4-hexylresorcinol]: the Growth entry in assay [1] (concentration 1.25E^−2 % v/v) is listed as “−”; in assay [1] (concentration 1.56E^−3 % v/v), “−”; in assay [1] (concentration 1.95E^−4 % v/v), “+”; in assay [1] (concentration 2.50E^−2 % v/v), “−”; in assay [1] (concentration 3.13E^−3 % v/v) it was “−”; in assay [1] (concentration 3.91E^−4 % v/v), “+”. For the same compound, the Growth result in assay [1] (concentration 5.0E^−2 % v/v) was “−”; in assay [1] (concentration 6.25E^−3 % v/v), “−”; in assay [1] (concentration 7.81E^−4 % v/v), “+”; in assay [1] (concentration 9.77E^−5 % v/v) it was “+”. The “Ave. Log Reduction ± S.D.” value is given as 4.84 log in assay [2] (0.002% (v/v) 4-hexylresorcinol plus 440 nm blue light (22 mW), two 60-minute exposures, simultaneous); 4.84 ± 0.40 log in assay [2] (0.002% (v/v) 4-hexylresorcinol plus 440 nm blue light (22 mW), two 60-minute exposures, simultaneous, listed as HR); 1.00 log in assay [2] (0.002% (v/v) 4-hexylresorcinol treatment only, no light); 1.00 ± 0.55 log in assay [2] (0.002% (v/v) 4-hexylresorcinol treatment only, no light, listed as HR). For the same compound, the “Benefit from the synergistic combination over expected additive reduction” value in assay [2] (light plus 0.002% 4-hexylresorcinol versus arithmetic sum) came out at 100 fold. Further, the “Ave. Log Reduction ± S.D., arithmetic sum (expected additive)” value is on record as 2.83 log in assay [2] and 2.83 ± 1.08 log in assay [2] (listed as HR).

The record behind these values is patent US10537534B1, “Compositions and methods for treating skin conditions using visible light and resorcinols” (Johnson & Johnson Consumer Inc., priority 2019, dated 2020).
